Laboratory results taken from US9550796B2, “Pyrrolopyrrolone derivatives and their use as BET inhibitors” (NOVARTIS AG, priority 2013, dated 2017).

How the values were obtained:
BRD4 = BRD4 (Homo sapiens (Human), UniProt O60885); assay: TR-FRET in-vitro binding assay for BRD4; conditions: 45 nM His-Brd4(44-477), acetyl-histone H4 (AcK 5, 8, 12, 16) peptide
Experimental: (§1) TR-FRET In-Vitro Binding Assays for BRD2, BRD3, and BRD4: All assays were performed in 384-well microtiter plates. […] Liquid handling and incubation steps were done on an Innovadyne Nanodrop Express equipped with a robotic arm (Thermo CatX, Perkin Elmer/Caliper Twister II) and an incubator (Liconic STX40, Thermo Cytomat 2C450). The assay plates were prepared by addition of 50 nl per well of compound solution in 90% DMSO HummingBird nanodispenser (Zinsser Analytic). […] Reactions were incubated at 30° C. for 35 minutes. […] After 35 minutes incubation at 30° C., plates were measured in a Perkin Elmer EnVision multilabel reader. […] The stock solutions were stored at […] if not used immediately. For the test procedure the vials were defrosted and identified by a scanner whereby a working sheet was generated that guided the subsequent working steps. Compound dilutions were made in 96 well plates. This format enabled the assay of maximally […] at 8 concentrations (single points) including 4 reference compounds, if desired (known BET inhibitors from the prior art, for this and other assays of the type disclosed herein). The dilution protocol included the production of “pre-dilution plates”, “master plates” and “assay plates”. Polypropylene 96-well plates were used as pre-dilution plates. […] All dilution steps were done on a HamiltonSTAR robot. […] Identical “assay plates” were then prepared by pipetting 50 nL each of compound dilutions of the “master plates” into 384-well “assay plates” by means of a HummingBird 384-channel dispenser. These plates were used directly for the assay which was performed in a total volume of 13.55 μL.

K-562 = assay: Cell growth inhibition assay (CellTiter-Glo), K-562; assay type: cell-based, human; conditions: K-562 cells, 4 days; for GI50: Homo sapiens, K562, 96 h, half-maximal growth inhibition; for K-562 TGI: total growth inhibition
Experimental: (§2) Cell Growth Inhibition Assay
(§3) The human leukemia cell lines MV-4-11, THP-1 and K-562 were employed to characterize the effect of BET inhibitors on cellular proliferation and viability. Cells were obtained from the American Type Culture Collection (ATCC) and cultured at 37° C. in a humidified 5% CO2 incubator in the following media: MV-4-11: DMEM high glucose (Animed #1-26F01-I), 10% FCS (Animed #2-01F26-I), 4 mM L-Glutamine (Animed #5-10K50), 1 mM Sodium Pyruvate (Animed # G03625P), 1× Penicillin-Streptomycin (Animed # F12478P); K-562: Iscove's MEM (Animed #1-28F16-I), 10% FCS (Animed #2-01F26-I), 4 mM L-Glutamine (Animed #5-10K50), 1× Penicillin-Streptomycin (Animed # F12478P); THP-1: RPMI-1640 (Animed #1-41F01-I), 10% FCS (Animed #2-01F26-I), 2 mM L-Glutamine (Animed #5-10K50), 10 mM HEPES (Animed #5-31F100), 1 mM Sodium Pyruvate (Animed # G03625P), 1× Penicillin-Streptomycin (Animed # F12478P). The AML lines MV-4-11 and THP-1 are very sensitive to BET inhibitors and show massive cell death upon BET inhibition (Zuber et al., Nature, 478 (2011), 524-8). Compound-mediated suppression of cell proliferation/viability was assessed by quantification of cellular ATP levels using the CellTiter-Glo (CTG) reagent (Promega). Briefly, cells were seeded in 20 μl fresh medium into 384-well plates, followed by addition of 5 μL medium containing compound dilutions at 5-fold their final intended concentration. Dose-response effects were assessed by 3-fold serial dilutions of the test compound, starting at 10 μM. Following incubation of the cells for 4 days at 37° C. and 5% CO2, the effect of inhibitors on cell viability was quantified following addition of 20 μl CTG and luminescence quantification (integration time: 100 ms) as per vendor manual, using a correspondingly equipped Tecan M200 multi-mode platereader (TECAN, Switzerland). For data analysis, the assay background value determined in wells containing medium, but no cells, was subtracted from all data points. To enable differentiation of cytotoxic from cytostatic compounds, the number of viable cells is assessed relative to that observed at the time of compound addition using a separate cell plate (day 0). The effect of a particular test compound concentration on cell proliferation/viability is expressed as percentage of the background- and day 0-corrected luminescence reading obtained for cells treated with vehicle only (DMSO, 0.1% final concentration), which is set as 100%, whereas that luminescence reading for wells containing medium is set as −100%. Compound concentrations leading to half-maximal (IC50) and total growth inhibition (TGI) were determined using standard four parameter curve fitting.

MV-4-11 = assay: Cell growth inhibition assay (CellTiter-Glo), MV-4-11; assay type: cell-based, human; conditions: MV-4-11 cells, 4 days; for GI50: Homo sapiens, MV4-11, 96 h, half-maximal growth inhibition; for MV-4-11 TGI: total growth inhibition
Experimental: as §2, §3

THP-1 = assay: Cell growth inhibition assay (CellTiter-Glo), THP-1; assay type: cell-based, human; conditions: THP-1 cells, 4 days; for GI50: Homo sapiens, 96 h, half-maximal growth inhibition; for THP-1 TGI: total growth inhibition
Experimental: as §2, §3

BRD3 = BRD3 (Homo sapiens (Human), UniProt Q15059); assay: TR-FRET in-vitro binding assay for BRD3; conditions: 45 nM His-Brd3(20-477), acetyl-histone H4 (AcK 5, 8, 12, 16) peptide
Chain of BRD3 (Q15059 20-477): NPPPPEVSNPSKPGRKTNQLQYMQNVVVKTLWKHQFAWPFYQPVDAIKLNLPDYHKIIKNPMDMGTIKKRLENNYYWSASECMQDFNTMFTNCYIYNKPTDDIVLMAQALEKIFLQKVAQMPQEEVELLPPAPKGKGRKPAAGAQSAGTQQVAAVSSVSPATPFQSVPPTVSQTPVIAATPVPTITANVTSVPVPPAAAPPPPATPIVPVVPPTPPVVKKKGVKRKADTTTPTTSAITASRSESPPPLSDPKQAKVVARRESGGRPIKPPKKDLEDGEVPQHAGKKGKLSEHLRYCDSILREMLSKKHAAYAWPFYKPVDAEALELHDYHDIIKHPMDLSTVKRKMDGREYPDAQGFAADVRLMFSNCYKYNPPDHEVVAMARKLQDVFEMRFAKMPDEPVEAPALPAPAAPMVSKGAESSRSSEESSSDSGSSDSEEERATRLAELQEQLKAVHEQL
Experimental: as §1

CREBBP = CREBBP (Homo sapiens (Human), UniProt Q92793); assay: AlphaScreen in-vitro binding assay for CREBBP; conditions: 324 nM His-CREBBP (1081-1197), acetyl-histone H4 (AcK 5, 8, 12) peptide
Chain of CREBBP (Q92793 1081-1197): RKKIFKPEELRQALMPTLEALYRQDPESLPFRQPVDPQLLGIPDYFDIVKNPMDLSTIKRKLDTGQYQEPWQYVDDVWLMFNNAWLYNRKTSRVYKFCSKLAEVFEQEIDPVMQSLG
Experimental: AlphaScreen In-Vitro Binding Assay for CREBBP
In order to assess bromodomain selectivity, we set up a binding assay using the bromodomain encoded by the CREBBP gene. […] The assay was started by stepwise addition of 4.5 μL per well of bromo domain protein (50 mM HEPES, pH 7.5, 0.005% Tween20, 0.02% BSA, 150 mM NaCl, 324 nM His-CREBBP (1081-1197) (custom production at Viva Biotech Ltd.)) and 4.5 μL per well of peptide solution (50 mM HEPES, pH 7.5, 0.005% Tween20, 0.02% BSA, 150 mM NaCl, 120 nM acetyl-histone H4 (AcK 5, 8, 12) (Biosyntan GmbH)). Reactions were incubated at 30° C. for 35 minutes. Subsequently 4.5 μL per well detection mix (50 mM HEPES, pH 7.5, 0.005% Tween20, 0.02% BSA, 150 mM NaCl, 45 μg/ml Ni-chelate acceptor beads, 45 μg/mL streptavidin-donor beads) (Perkin Elmer)) were added. After 60 minutes incubation at room temperature, plates were measured in a Perkin Elmer EnVision multilabel reader. IC50 values were determined from percent inhibition values at different compound concentrations by non-linear regression analysis.
Test compounds were dissolved in DMSO (10 mM) and transferred into 1.4 mL flat bottom or V-shaped Matrix tubes carrying a unique 2D matrix. The stock solutions were stored at […] if not used immediately. For the test procedure the vials were defrosted and identified by a scanner whereby a working sheet was generated that guided the subsequent working steps. Compound dilutions were made in 96 well plates. This format enabled the assay of maximally […] at 8 concentrations (single points) including 4 reference compounds, if desired (known BET inhibitors from the prior art, for this and other assays of the type disclosed herein). The dilution protocol included the production of “pre-dilution plates”, “master plates” and “assay plates”.
Polypropylene 96-well plates were used as pre-dilution plates. A total of 4 pre-dilution plates were prepared including 10 test compounds each on the plate positions A1-A10, one standard compound at A11 and one DMSO control at […]. All dilution steps were done on a HamiltonSTAR robot.
30 μL of individual compound dilutions including standard compound and controls of the 4 “pre-dilution plates” were transferred into a 384-well “master plate” including the following concentrations 10000, […], 1000, 300, 100, 30, 10 and 3 μM, respectively in 90% of DMSO.
Identical “assay plates” were then prepared by pipetting 50 nL each of compound dilutions of the “master plates” into 384-well “assay plates” by means of a HummingBird 384-channel dispenser. These plates were used directly for the assay which was performed in a total volume of 13.55 μL.

| IC50 (BRD4) [nM] | GI50 (K-562) [nM] | GI50 (MV-4-11) [nM] | GI50 (THP-1) [nM] | IC50 (BRD3) [nM] | IC50 (CREBBP) [nM] | SMILES | K-562 TGI (K-562) [µM] | MV-4-11 TGI (MV-4-11) [µM] | THP-1 TGI (THP-1) [µM] |
| --- | --- | --- | --- | --- | --- | --- | --- | --- | --- |
| 14 | 21.4 | 6.08 | 6.4 | 21 | 470 | COc1ncccc1-c1cc2c(n1C)C(c1ccc(Cl)cc1)N(c1cc(C)c3nnc(C)n3c1)C2=O (stereo in doubt) [Example 135, (R)-6-(4-chlorophenyl)-5-(3,8-dimethyl-[1,2,4]triazolo[4,3-a]pyridin-6-yl)-2-(2-methoxypyridin-3-yl)-1-methyl-5,6-dihydropyrrolo[3,4-b]pyrrol-4(1H)-one] | >10 | 0.01244 | 0.01495 |
| < 11 | 31.1 | 10 | 11.1 | 13 | 590 | Cc1cc(N2C(=O)c3cc(C4=CCOCC4)n(C)c3C2c2ccc(Cl)cc2)cn2c(C)nnc12 (stereo in doubt) [Example 137, (R)-6-(4-chlorophenyl)-2-(3,6-dihydro-2H-pyran-4-yl)-5-(3,8-dimethyl-[1,2,4]triazolo[4,3-a]pyridin-6-yl)-1-methyl-5,6-dihydropyrrolo[3,4-b]pyrrol-4(1H)-one] | >10 | 0.01875 | 0.02275 |
| 12 | 16.4 | 2.86 | 4.63 |  |  | Cc1cc(N2C(=O)c3c(C4CC4)cn(C4COC4)c3C2c2ccc(Cl)cc2)cn2c(C)nnc12 (centres unmarked) [Example 18, 6-(4-chlorophenyl)-3-cyclopropyl-5-(3,8-dimethyl-[1,2,4]triazolo[4,3-a]pyridin-6-yl)-1-(oxetan-3-yl)-5,6-dihydropyrrolo[3,4-b]pyrrol-4(1H)-one] | >10 | 0.00813 | 0.01335 |
|  | 45.9 | 4.08 | 8.94 | 15 | 6100 | Cc1cc(N2C(=O)c3c(C4CC4)cn(C)c3C2c2ccc(Cl)cc2)cn2c(C)nnc12 (centres unmarked) [Example 35, 6-(4-chlorophenyl)-3-cyclopropyl-5-(3,8-dimethyl-[1,2,4]triazolo[4,3-a]pyridin-6-yl)-1-methyl-5,6-dihydropyrrolo[3,4-b]pyrrol-4(1H)-one] | >10 | 0.00867 | 0.01785 |
|  | 17.9 | 2.15 | 3.36 | 15 | 4100 | Cc1cc(N2C(=O)c3c(C4CC4)cn(C)c3[C@H]2c2ccc(Cl)cc2)cn2c(C)nnc12 [Example 36, (R)-6-(4-chlorophenyl)-3-cyclopropyl-5-(3,8-dimethyl-[1,2,4]triazolo[4,3-a]pyridin-6-yl)-1-methyl-5,6-dihydropyrrolo[3,4-b]pyrrol-4(1H)-one] | >10 | 0.00622 | 0.01091 |
| 23 | 273 | 90.1 | 92.7 |  |  | Cc1cc2c(n1C)C(c1ccc(Cl)cc1)N(c1cc(Cl)c(=O)n(C)c1)C2=O (centres unmarked) [Example 74, 5-(5-chloro-1-methyl-6-oxo-1,6-dihydropyridin-3-yl)-6-(4-chlorophenyl)-1,2-dimethyl-5,6-dihydropyrrolo[3,4-b]pyrrol-4(1H)-one] | >10 | 0.142 | 0.1715 |
| 37 | 368 | 108 | 118 |  |  | Cn1ccc2c1C(c1ccc(Cl)cc1)N(c1cc(Cl)c(=O)n(C)c1)C2=O (centres unmarked) [Example 76, 5-(5-chloro-1-methyl-6-oxo-1,6-dihydropyridin-3-yl)-6-(4-chlorophenyl)-1-methyl-5,6-dihydropyrrolo[3,4-b]pyrrol-4(1H)-one] | >10 | 0.178 | 0.238 |
|  | 119 | 19.8 | 33.7 |  | 1400 | CC(=O)Nc1cn(C)c2c1C(=O)N(c1cc(C)c3nnc(C)n3c1)[C@@H]2c1ccc(Cl)cc1 [Example 136, (R)—N-(6-(4-chlorophenyl)-5-(3,8-dimethyl-[1,2,4]triazolo[4,3-a]pyridin-6-yl)-1-methyl-4-oxo-1,4,5,6-tetrahydropyrrolo[3,4-b]pyrrol-3-yl)acetamide] | >10 | 0.0395 | 0.0792 |
